Each structure is given as a SMILES string. In brackets after ≈: the same amount, converted by molar mass. A value given as a limit tells only on which side of the number the result lay.

One test addresses T1, E. coli K12 PBP3 (Escherichia coli, UniProt P0AD68).
T1 construct: made in house
The test can be described thus: biochemical. Type of test: binding. The method, boiled down: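 A. baumannii PBP2 (2.5 μM) and PBP3 (0.2 μM) were run in 25 mM Tris pH 8.0 buffer with Tween 20; E. coli PBP3 (1.5 μM) and N. gonorrhoeae PBP2 ([…]) in 50 mM Hepes pH 8.0 buffer.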

The target of the next test is T2, P. aeruginosa PBP3 (Pseudomonas aeruginosa, UniProt G3XD46).
T2 construct: made in house
Kind of test: Bocillin-FL fluorescence polarization competition binding assay, P. aeruginosa PBP3. Conditions: fluorescence polarization competition binding assay using Bocillin-FL. The method, boiled down: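 Inhibitor competition with Bocillin-FL for P. aeruginosa PBP3 was followed by fluorescence polarization on a Cytation3 (BioTek) reader, using g-factor 0.96, 490 nm excitation and 520 nm emission. The enzyme was at 0.75 μM and the probe at 0.1 μM in Hepes/NaCl/glycerol buffer, 80 μl per well. FP was recorded immediately after probe addition for up to 60 minutes. Potency was expressed as EC50, the concentration that reduces bound probe by 50%.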
Background: Fluorescence polarisation rises when a labelled molecule tumbles more slowly, as on binding a larger partner.

The next test relates to A. baumannii ATCC 19606. Kind of test: Broth microdilution MIC in CAMHB. The conditions noted are these: Acinetobacter baumannii, ATCC19606; MHB; read-out: Minimum Inhibitory Concentration, A. baumannii ATCC 19606. In kind it is cell-based. The method in brief:
(§1)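 CLSI microdilution; CAMHB; inoculum 2-8×10^5 CFU/mL from 3-5 h 37° C culture; 2-fold compound series; 16-20 h, 37° C; MIC = lowest well without visible growth.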

The next test relates to E. coli 901C. Kind of test: Broth microdilution MIC in CAMHB. Type of test: cell-based. The conditions noted are these: Escherichia coli; E. coli 901C (hyper-permeable); MHB; read-out: Minimum Inhibitory Concentration, E. coli 901C. The method, boiled down:
as §1
(In general: Dilution methods test growth across graded concentrations, often in twofold steps.)

The test system of the next test is E. coli AG100A. The test can be described thus: Broth microdilution MIC in CAMHB. The conditions noted are these: Escherichia coli, read-out: Minimum Inhibitory Concentration, E. coli AG100A. Type of test: cell-based. The method in brief: as §1
For the next test, the system named is E. coli AG100. Kind of test: Broth microdilution MIC in CAMHB. In kind it is cell-based. The conditions noted are these: Escherichia coli; E. coli AG100 (wild-type parent); MHB; read-out: Minimum Inhibitory Concentration, E. coli AG100. The method in brief:
as §1

Another test relates to E. coli ATCC 25922. The test can be described thus: Broth microdilution MIC in CAMHB. Type of test: cell-based. Conditions: Escherichia coli, ATCC25922; E. coli ATCC 25922; MHB; read-out: Minimum Inhibitory Concentration, E. coli 25922. The method in brief: as §1
For a further test, the system named is E. coli D22. The test can be described thus: Broth microdilution MIC in CAMHB. In kind it is cell-based. The conditions noted are these: Escherichia coli; E. coli D22 (hyper-permeable); MHB; read-out: Minimum Inhibitory Concentration, E. coli D22. The method, boiled down: as §1
Test [1] deals with K. pneumoniae 848844 producing SHV-11 and KPC-2. Kind of test: Broth microdilution MIC in CAMHB. In kind it is cell-based. Conditions: Klebsiella pneumoniae, read-out: Minimum Inhibitory Concentration, K. pneumoniae 848844. The method, boiled down:
as §1

Test [2] has as its system K. pneumoniae SI-117 producing VIM-1. The test can be described thus: Broth microdilution MIC in CAMHB. The conditions noted are these: Klebsiella pneumoniae, read-out: Minimum Inhibitory Concentration, K. pneumoniae SI-117. In kind it is cell-based. The method, boiled down: as §1
The test system of test [3] is K. pneumoniae UMM producing SHV-5 and KPC-2. Kind of test: Broth microdilution MIC in CAMHB. Type of test: cell-based. Conditions: Klebsiella pneumoniae, read-out: Minimum Inhibitory Concentration, K. pneumoniae UMM. The method, boiled down:
as §1

Test [4] deals with P. aeruginosa (ΔmexAB-oprM). The test can be described thus: Broth microdilution MIC in CAMHB. In kind it is cell-based. Conditions: Pseudomonas aeruginosa, read-out: Minimum Inhibitory Concentration, P. aeruginosa ΔmexAB-OprM. The method, boiled down:
as §1

The next test relates to P. aeruginosa ATCC 35151. Kind of test: Broth microdilution MIC in CAMHB. In kind it is cell-based. Conditions: Pseudomonas aeruginosa, ATCC35151; MHB; hyper-permeable strain; read-out: Minimum Inhibitory Concentration, P. aeruginosa ATCC 35151. The method, boiled down:
as §1

The test system of a further test is P. aeruginosa PAO1. Kind of test: Broth microdilution MIC in CAMHB. Conditions: Pseudomonas aeruginosa, MHB, read-out: Minimum Inhibitory Concentration, P. aeruginosa PAO1. In kind it is cell-based. The procedure:
To determine the ability of test compounds to inhibit the growth of bacterial strains, classic cell based broth microdilution minimum inhibitory concentration (MIC) assays were employed. MIC assays are performed according to CLSI methods except where otherwise noted (CLSI, 2018 and CLSI, 2019). The reference type strain E. coli ATCC 25922; the wild-type parent strain E. coli AG100; the hyper-permeable E. coli 901C and E. coli D22; and the E. coli AG100A strain lacking the acrAB efflux pump encoding genes were used to determine the ability of the PBP inhibitors to penetrate the outer membrane of gram-negative bacteria and inhibit bacterial growth. […] The P. aeruginosa ATCC 27853 and A. baumannii ATCC 19606, along with the hyper-permeable P. aeruginosa ATCC 35151 and an engineered efflux pump-compromised strain of P. aeruginosa (ΔmexAB-oprM) were used to determine the ability of PBP inhibitors to penetrate the outer membrane of P. aeruginosa and A. baumannii and assess antibacterial activity against these important gram-negative organisms.
Briefly, cryo-preserved bacterial cultures of challenge strains are streaked for isolation on appropriate agar medium, in this case cation-adjusted Mueller Hinton agar. Following incubation to allow growth of the colonies, plates are sealed with parafilm and stored refrigerated for up to two weeks. For preparation of assay inoculum and to ensure low variability, at least 5 colonies are picked from the agar plates with an inoculating loop and aseptically transferred to a culture tube containing 3 mL of cation-adjusted Mueller Hinton broth (CAMHB). The broth culture is grown for 3-5 hours at 37° C. with shaking at 200 rpm. Meanwhile, 2-fold serial dilutions of test compounds are conducted in a 96-well plate with a final volume of 75 μL per well at 2-fold the final desired concentration. After the dilution plates are set up the growing cultures are then diluted in a cuvette containing CAMHB and the optical density is measured at 600 nm. The inoculum is diluted such that 75 μL of this culture in CAMHB results in a starting bacterial concentration of 2-8×10^5 CFU/mL when added to the dilution plates. The plates are incubated for 16-20 hours for Enterobacteriaceae and Pseudomonas and 20-24 hours for Acinetobacter at 37° C. The MIC values are read visually as the lowest concentration well with no bacterial growth.

T2 sequence (G3XD46 whole entry): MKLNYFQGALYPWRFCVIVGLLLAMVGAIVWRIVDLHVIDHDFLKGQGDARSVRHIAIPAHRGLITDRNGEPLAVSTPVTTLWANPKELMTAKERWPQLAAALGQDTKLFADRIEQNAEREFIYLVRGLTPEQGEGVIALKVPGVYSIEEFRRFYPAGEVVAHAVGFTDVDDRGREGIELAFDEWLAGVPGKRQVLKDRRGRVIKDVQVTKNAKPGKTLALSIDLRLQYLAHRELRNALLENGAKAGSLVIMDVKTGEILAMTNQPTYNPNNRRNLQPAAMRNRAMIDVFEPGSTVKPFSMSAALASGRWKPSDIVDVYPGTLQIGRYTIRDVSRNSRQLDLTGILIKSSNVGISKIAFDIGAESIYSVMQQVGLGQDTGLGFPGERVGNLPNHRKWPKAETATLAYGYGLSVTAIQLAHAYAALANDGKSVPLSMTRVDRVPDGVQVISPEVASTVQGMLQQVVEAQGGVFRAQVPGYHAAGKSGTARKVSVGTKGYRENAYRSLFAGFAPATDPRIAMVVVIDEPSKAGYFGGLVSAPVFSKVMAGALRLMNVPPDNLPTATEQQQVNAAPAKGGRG
T1 sequence (P0AD68 1-577): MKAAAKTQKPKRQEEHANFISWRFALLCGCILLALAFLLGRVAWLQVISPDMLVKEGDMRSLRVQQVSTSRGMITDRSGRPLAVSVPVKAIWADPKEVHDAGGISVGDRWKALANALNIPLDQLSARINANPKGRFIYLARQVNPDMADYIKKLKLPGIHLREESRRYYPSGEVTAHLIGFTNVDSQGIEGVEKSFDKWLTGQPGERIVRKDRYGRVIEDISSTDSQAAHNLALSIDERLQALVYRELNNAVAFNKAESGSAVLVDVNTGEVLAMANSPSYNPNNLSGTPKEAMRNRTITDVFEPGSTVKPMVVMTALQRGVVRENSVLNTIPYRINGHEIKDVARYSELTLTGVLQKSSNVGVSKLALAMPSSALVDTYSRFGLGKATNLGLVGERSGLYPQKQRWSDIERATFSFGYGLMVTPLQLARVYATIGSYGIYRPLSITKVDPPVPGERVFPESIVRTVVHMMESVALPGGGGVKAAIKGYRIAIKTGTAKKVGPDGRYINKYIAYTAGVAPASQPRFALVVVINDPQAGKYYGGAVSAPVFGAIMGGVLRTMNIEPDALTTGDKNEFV

Usually EC50 stands for the concentration at which the effect is half-maximal. Low readings indicate an effect from little substance, high ones a need for much substance. `CCN1CCN(C(=O)NC(C(=O)N[C@H]2Cc3ccc(C(F)(F)F)c(C(=O)O)c3OB2O)c2csc(N)n2)C(=O)C1=O` (stereo partly drawn) [Example 63, (3R)-3-(2-(2-aminothiazol-4-yl)-2-(4-ethyl-2,3-dioxopiperazine-1-carboxamido)acetamido)-2-hydroxy-7-(trifluoromethyl)-3,4-dihydro-2H-benzo[e][1,2]oxaborinine-8-carboxylic acid]: the EC50 at E. coli K12 PBP3 is over 500 µM. In addition, the “P. aeruginosa PBP3 Potency” value on P. aeruginosa PBP3 is “B (B represents a potency between 30 μM and 500 μM inclusive)”. Also, the MIC with A. baumannii ATCC 19606 is over 128 µg/mL; in the test with E. coli 901C, 8 to 16 µg/mL (≈ 13.4 to 26.7 µM); in the test with E. coli AG100A, over 128 µg/mL; in the test with E. coli AG100, over 128 µg/mL; with E. coli ATCC 25922, over 128 µg/mL; in the test with E. coli D22 it was over 128 µg/mL. The MIC is over 128 µg/mL in test [1]; over 128 µg/mL in test [2]; over 128 µg/mL in test [3]; over 128 µg/mL in [4]; 8 to 16 µg/mL (≈ 13.4 to 26.7 µM) in the test on P. aeruginosa ATCC 35151; over 128 µg/mL with P. aeruginosa PAO1.

The record behind these values is US20230114728A1 (Venatorx Pharmaceuticals, Inc., priority 2019, published 2023).
